Target: Aldo-keto reductase family 1 member B1 (Rattus norvegicus, UniProt P07943);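 note: inhibition of aldose reductase enzyme activity, measured with DL-glyceraldehyde as the substrate; in other assays of this panel Not Active means under 50% inhibition at 10 µM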
Type: tissue-based, Lens of camera-type eye
Details: not given

Molecule	IC50	Ki
GOLD SODIUM THIOMALATE	Not Active	Not Active
CC[N+](CC)(CC)CCOc1cccc(OCC[N+](CC)(CC)CC)c1OCC[N+](CC)(CC)CC.[I-].[I-].[I-] [GALLAMINE TRIETHIODIDE]	Not Active	–
OCc1ccccc1 [BENZYL ALCOHOL]	Not Active	–
C=C1C(=O)O[C@@H]2C3O[C@]3(C)CC/C=C(\C)CC[C@@H]12 (stereo not given in full)	Not Active	–
CCOC(=O)c1ccc(N)cc1 [BENZOCAINE]	Not Active	–
OXALIPLATIN	Not Active	Not Active
c1ccc2c(c1)cc1ccc3cccc4ccc2c1c34	Not Active	–
COc1ccc([C@@H]2Sc3ccccc3N(CCN(C)C)C(=O)[C@@H]2OC(C)=O)cc1 [DILTIAZEM]	Not Active	–
NCC(=O)O [GLYCINE]	Not Active	–
O=C1CCc2cc(OCCCCc3nnnn3C3CCCCC3)ccc2N1 [CILOSTAZOL]	Not Active	–
CC(C)(S)[C@@H](N)C(=O)O [PENICILLAMINE]	Not Active	–

Tested on: not listed separately
Assay: DRUGMATRIX: Sodium/nucleoside co-transporter radioligand binding (ligand: nitrobenzylthioinosine)
Type: cell membranes, Cavia porcellus, Dunkin-Hartley, Cerebral cortex, Membrane
Details: Not Active = under 50% inhibition at 10 µM

Molecule	IC50	Ki
GOLD SODIUM THIOMALATE	Not Active	Not Active
CC[N+](CC)(CC)CCOc1cccc(OCC[N+](CC)(CC)CC)c1OCC[N+](CC)(CC)CC.[I-].[I-].[I-] [GALLAMINE TRIETHIODIDE]	Not Active	Not Active
OCc1ccccc1 [BENZYL ALCOHOL]	Not Active	Not Active
C=C1C(=O)O[C@@H]2C3O[C@]3(C)CC/C=C(\C)CC[C@@H]12 (stereo not given in full)	Not Active	Not Active
CCOC(=O)c1ccc(N)cc1 [BENZOCAINE]	Not Active	Not Active
OXALIPLATIN	Not Active	Not Active
c1ccc2c(c1)cc1ccc3cccc4ccc2c1c34	Not Active	Not Active
COc1ccc([C@@H]2Sc3ccccc3N(CCN(C)C)C(=O)[C@@H]2OC(C)=O)cc1 [DILTIAZEM]	Not Active	Not Active
NCC(=O)O [GLYCINE]	Not Active	Not Active
O=C1CCc2cc(OCCCCc3nnnn3C3CCCCC3)ccc2N1 [CILOSTAZOL]	Not Active	Not Active
CC(C)(S)[C@@H](N)C(=O)O [PENICILLAMINE]	Not Active	Not Active

Target: T1, Type-2 angiotensin II receptor (Homo sapiens, UniProt P50052); note: in other assays of this panel Not Active means under 50% inhibition at 10 µM
T1 sequence (P50052 whole entry): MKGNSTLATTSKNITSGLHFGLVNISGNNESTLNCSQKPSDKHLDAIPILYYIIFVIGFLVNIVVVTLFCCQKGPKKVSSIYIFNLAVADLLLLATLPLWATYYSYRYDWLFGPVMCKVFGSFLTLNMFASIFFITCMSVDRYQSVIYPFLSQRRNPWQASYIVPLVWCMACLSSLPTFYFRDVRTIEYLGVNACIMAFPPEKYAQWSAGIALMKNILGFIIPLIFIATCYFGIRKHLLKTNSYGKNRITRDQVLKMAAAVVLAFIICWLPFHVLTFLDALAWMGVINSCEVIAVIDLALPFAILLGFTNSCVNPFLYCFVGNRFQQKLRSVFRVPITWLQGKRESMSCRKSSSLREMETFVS
Type: cell-based
Details: cho-k1

Molecule	IC50	Ki
GOLD SODIUM THIOMALATE	Not Active	Not Active
CC[N+](CC)(CC)CCOc1cccc(OCC[N+](CC)(CC)CC)c1OCC[N+](CC)(CC)CC.[I-].[I-].[I-] [GALLAMINE TRIETHIODIDE]	Not Active	–
OCc1ccccc1 [BENZYL ALCOHOL]	Not Active	–
C=C1C(=O)O[C@@H]2C3O[C@]3(C)CC/C=C(\C)CC[C@@H]12 (stereo not given in full)	Not Active	–
CCOC(=O)c1ccc(N)cc1 [BENZOCAINE]	Not Active	–
OXALIPLATIN	Not Active	Not Active
c1ccc2c(c1)cc1ccc3cccc4ccc2c1c34	Not Active	–
COc1ccc([C@@H]2Sc3ccccc3N(CCN(C)C)C(=O)[C@@H]2OC(C)=O)cc1 [DILTIAZEM]	Not Active	–
NCC(=O)O [GLYCINE]	Not Active	–
O=C1CCc2cc(OCCCCc3nnnn3C3CCCCC3)ccc2N1 [CILOSTAZOL]	Not Active	–
CC(C)(S)[C@@H](N)C(=O)O [PENICILLAMINE]	Not Active	–

Target: Sodium-dependent dopamine transporter (Homo sapiens, UniProt Q01959)
Sequence (Q01959 whole entry): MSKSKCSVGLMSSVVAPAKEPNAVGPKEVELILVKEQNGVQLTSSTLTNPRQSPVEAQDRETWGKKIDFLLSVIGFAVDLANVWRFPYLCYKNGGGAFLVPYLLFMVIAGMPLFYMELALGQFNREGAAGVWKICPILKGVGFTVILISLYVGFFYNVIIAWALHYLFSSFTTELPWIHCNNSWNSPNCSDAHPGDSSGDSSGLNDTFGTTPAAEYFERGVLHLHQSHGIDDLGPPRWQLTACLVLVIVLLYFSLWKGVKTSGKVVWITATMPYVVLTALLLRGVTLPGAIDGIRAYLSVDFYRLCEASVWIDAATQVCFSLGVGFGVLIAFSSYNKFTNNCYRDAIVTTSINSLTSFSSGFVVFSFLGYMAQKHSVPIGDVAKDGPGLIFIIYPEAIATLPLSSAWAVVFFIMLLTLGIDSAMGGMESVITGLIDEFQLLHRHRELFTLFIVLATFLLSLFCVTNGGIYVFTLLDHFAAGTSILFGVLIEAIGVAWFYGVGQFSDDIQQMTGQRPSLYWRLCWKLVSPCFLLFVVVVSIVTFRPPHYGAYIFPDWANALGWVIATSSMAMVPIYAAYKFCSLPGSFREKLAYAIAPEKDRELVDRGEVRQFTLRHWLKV
Assay: DRUGMATRIX: Dopamine Transporter radioligand binding (ligand: [125I] RTI-55)
Type: cell membranes, CHO-K1, Membrane
Details: cho-k1; Not Active = under 50% inhibition at 10 µM

Molecule	IC50	Ki
GOLD SODIUM THIOMALATE	Not Active	Not Active
CC[N+](CC)(CC)CCOc1cccc(OCC[N+](CC)(CC)CC)c1OCC[N+](CC)(CC)CC.[I-].[I-].[I-] [GALLAMINE TRIETHIODIDE]	Not Active	–
OCc1ccccc1 [BENZYL ALCOHOL]	Not Active	–
C=C1C(=O)O[C@@H]2C3O[C@]3(C)CC/C=C(\C)CC[C@@H]12 (stereo not given in full)	Not Active	–
CCOC(=O)c1ccc(N)cc1 [BENZOCAINE]	Not Active	–
OXALIPLATIN	Not Active	Not Active
c1ccc2c(c1)cc1ccc3cccc4ccc2c1c34	Not Active	–
COc1ccc([C@@H]2Sc3ccccc3N(CCN(C)C)C(=O)[C@@H]2OC(C)=O)cc1 [DILTIAZEM]	Not Active	–
NCC(=O)O [GLYCINE]	Not Active	–
O=C1CCc2cc(OCCCCc3nnnn3C3CCCCC3)ccc2N1 [CILOSTAZOL]	Not Active	–
CC(C)(S)[C@@H](N)C(=O)O [PENICILLAMINE]	Not Active	–

Target: T2, Alpha-2A adrenergic receptor (Homo sapiens, UniProt P08913); note: in other assays of this panel Not Active means under 50% inhibition at 10 µM
T2 sequence (P08913 whole entry): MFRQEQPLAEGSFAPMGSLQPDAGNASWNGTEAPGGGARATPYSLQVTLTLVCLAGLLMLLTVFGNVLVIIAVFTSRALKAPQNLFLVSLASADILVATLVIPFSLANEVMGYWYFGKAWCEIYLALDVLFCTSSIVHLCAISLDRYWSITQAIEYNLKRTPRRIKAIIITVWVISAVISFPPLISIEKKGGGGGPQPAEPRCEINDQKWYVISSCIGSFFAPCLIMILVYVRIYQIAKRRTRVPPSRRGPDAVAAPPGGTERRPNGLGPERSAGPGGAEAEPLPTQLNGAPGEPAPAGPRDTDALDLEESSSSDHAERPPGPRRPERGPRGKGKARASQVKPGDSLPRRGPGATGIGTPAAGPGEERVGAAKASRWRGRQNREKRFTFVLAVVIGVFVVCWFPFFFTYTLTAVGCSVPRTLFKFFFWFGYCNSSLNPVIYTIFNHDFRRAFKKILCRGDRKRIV
Type: cell membranes, Sf9, Membrane
Details: sf9

Molecule	IC50	Ki
GOLD SODIUM THIOMALATE	Not Active	Not Active
CC[N+](CC)(CC)CCOc1cccc(OCC[N+](CC)(CC)CC)c1OCC[N+](CC)(CC)CC.[I-].[I-].[I-] [GALLAMINE TRIETHIODIDE]	Not Active	–
OCc1ccccc1 [BENZYL ALCOHOL]	Not Active	–
C=C1C(=O)O[C@@H]2C3O[C@]3(C)CC/C=C(\C)CC[C@@H]12 (stereo not given in full)	Not Active	–
CCOC(=O)c1ccc(N)cc1 [BENZOCAINE]	Not Active	–
OXALIPLATIN	Not Active	Not Active
c1ccc2c(c1)cc1ccc3cccc4ccc2c1c34	Not Active	–
COc1ccc([C@@H]2Sc3ccccc3N(CCN(C)C)C(=O)[C@@H]2OC(C)=O)cc1 [DILTIAZEM]	Not Active	–
NCC(=O)O [GLYCINE]	Not Active	–
O=C1CCc2cc(OCCCCc3nnnn3C3CCCCC3)ccc2N1 [CILOSTAZOL]	Not Active	–
CC(C)(S)[C@@H](N)C(=O)O [PENICILLAMINE]	Not Active	–

Target: T3, Muscarinic acetylcholine receptor M5 (Homo sapiens, UniProt P08912); note: in other assays of this panel Not Active means under 50% inhibition at 10 µM
T3 sequence (P08912 whole entry): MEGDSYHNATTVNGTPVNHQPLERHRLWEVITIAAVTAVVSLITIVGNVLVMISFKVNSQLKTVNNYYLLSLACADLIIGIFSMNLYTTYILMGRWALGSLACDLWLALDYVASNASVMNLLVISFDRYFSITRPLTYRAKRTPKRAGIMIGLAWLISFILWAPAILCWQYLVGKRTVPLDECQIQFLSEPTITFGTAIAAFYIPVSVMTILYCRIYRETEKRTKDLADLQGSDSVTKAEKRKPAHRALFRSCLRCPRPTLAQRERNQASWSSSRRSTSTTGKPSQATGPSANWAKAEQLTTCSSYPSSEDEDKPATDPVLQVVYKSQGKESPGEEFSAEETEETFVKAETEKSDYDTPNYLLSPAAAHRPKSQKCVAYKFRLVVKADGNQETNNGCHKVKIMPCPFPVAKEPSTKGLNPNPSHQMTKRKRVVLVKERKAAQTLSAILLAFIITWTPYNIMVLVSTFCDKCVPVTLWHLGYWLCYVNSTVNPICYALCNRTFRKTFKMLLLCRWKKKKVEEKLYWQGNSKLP
Type: cell membranes, CHO-K1, Membrane
Details: cho-k1

Molecule	IC50	Ki
GOLD SODIUM THIOMALATE	Not Active	Not Active
CC[N+](CC)(CC)CCOc1cccc(OCC[N+](CC)(CC)CC)c1OCC[N+](CC)(CC)CC.[I-].[I-].[I-] [GALLAMINE TRIETHIODIDE]	Not Active	–
OCc1ccccc1 [BENZYL ALCOHOL]	Not Active	–
C=C1C(=O)O[C@@H]2C3O[C@]3(C)CC/C=C(\C)CC[C@@H]12 (stereo not given in full)	Not Active	–
CCOC(=O)c1ccc(N)cc1 [BENZOCAINE]	Not Active	–
OXALIPLATIN	Not Active	Not Active
c1ccc2c(c1)cc1ccc3cccc4ccc2c1c34	Not Active	–
COc1ccc([C@@H]2Sc3ccccc3N(CCN(C)C)C(=O)[C@@H]2OC(C)=O)cc1 [DILTIAZEM]	Not Active	–
NCC(=O)O [GLYCINE]	Not Active	–
O=C1CCc2cc(OCCCCc3nnnn3C3CCCCC3)ccc2N1 [CILOSTAZOL]	Not Active	–
CC(C)(S)[C@@H](N)C(=O)O [PENICILLAMINE]	Not Active	–

Target: T4, Receptor-type tyrosine-protein phosphatase C (Homo sapiens, UniProt P08575)
T4 sequence (P08575 whole entry): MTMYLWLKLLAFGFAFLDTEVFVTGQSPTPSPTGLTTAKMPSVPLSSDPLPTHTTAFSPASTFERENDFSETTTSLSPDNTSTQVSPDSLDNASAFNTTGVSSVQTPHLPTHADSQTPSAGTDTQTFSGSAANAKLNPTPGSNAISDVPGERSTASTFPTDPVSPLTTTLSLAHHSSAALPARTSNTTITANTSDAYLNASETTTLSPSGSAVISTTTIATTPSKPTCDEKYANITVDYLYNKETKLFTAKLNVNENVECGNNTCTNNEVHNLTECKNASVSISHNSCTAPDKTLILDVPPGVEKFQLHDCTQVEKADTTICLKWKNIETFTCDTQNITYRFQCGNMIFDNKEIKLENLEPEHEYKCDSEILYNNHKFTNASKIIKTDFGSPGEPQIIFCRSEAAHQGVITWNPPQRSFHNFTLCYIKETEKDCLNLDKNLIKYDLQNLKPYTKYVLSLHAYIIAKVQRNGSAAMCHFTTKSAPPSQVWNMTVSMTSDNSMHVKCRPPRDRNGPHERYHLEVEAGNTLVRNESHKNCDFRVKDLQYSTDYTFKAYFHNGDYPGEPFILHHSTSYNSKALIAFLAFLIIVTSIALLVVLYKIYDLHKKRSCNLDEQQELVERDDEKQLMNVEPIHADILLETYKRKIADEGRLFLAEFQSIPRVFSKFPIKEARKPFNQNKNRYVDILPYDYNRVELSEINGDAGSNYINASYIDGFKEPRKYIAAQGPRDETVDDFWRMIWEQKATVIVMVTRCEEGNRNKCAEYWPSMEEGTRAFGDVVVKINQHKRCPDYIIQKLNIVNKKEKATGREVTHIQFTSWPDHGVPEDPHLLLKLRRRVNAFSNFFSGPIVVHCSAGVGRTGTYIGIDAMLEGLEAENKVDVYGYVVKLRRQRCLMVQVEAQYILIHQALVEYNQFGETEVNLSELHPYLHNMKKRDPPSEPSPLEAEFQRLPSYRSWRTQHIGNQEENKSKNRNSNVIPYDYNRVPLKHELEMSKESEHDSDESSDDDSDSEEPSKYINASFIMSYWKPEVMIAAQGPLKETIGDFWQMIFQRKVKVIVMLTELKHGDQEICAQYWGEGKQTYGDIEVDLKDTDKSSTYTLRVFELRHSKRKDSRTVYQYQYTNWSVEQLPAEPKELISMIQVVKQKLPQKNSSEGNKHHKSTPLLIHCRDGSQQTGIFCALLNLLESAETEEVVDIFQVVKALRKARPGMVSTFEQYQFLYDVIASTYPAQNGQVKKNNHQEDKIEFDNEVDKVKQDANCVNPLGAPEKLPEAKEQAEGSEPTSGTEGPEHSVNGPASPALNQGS
Set-up: species or system Escherichia coli
Details: not given

Molecule	IC50	Ki
GOLD SODIUM THIOMALATE	Not Active	Not Active
CC[N+](CC)(CC)CCOc1cccc(OCC[N+](CC)(CC)CC)c1OCC[N+](CC)(CC)CC.[I-].[I-].[I-] [GALLAMINE TRIETHIODIDE]	Not Active	–
OCc1ccccc1 [BENZYL ALCOHOL]	Not Active	–
C=C1C(=O)O[C@@H]2C3O[C@]3(C)CC/C=C(\C)CC[C@@H]12 (stereo not given in full)	Not Active	–
CCOC(=O)c1ccc(N)cc1 [BENZOCAINE]	Not Active	–
OXALIPLATIN	Not Active	Not Active
c1ccc2c(c1)cc1ccc3cccc4ccc2c1c34	Not Active	–
COc1ccc([C@@H]2Sc3ccccc3N(CCN(C)C)C(=O)[C@@H]2OC(C)=O)cc1 [DILTIAZEM]	Not Active	–
NCC(=O)O [GLYCINE]	Not Active	–
O=C1CCc2cc(OCCCCc3nnnn3C3CCCCC3)ccc2N1 [CILOSTAZOL]	Not Active	–
CC(C)(S)[C@@H](N)C(=O)O [PENICILLAMINE]	Not Active	–

Reference: ChEMBL document CHEMBL1909046, “DrugMatrix in vitro pharmacology data”
